{"source": "patent US12623942B2", "about": "“Method for extracting salts and temperature- regenerated extracting composition” (ADIONICS, priority 2016, dated 2026)", "key": {"[1]": {"experiment": "Liquid-liquid extraction of mono-salt saline solution", "settings": "0.1M CEM + 3.52M ASM2 in CH2Cl2; initial salt 0.1 mol/L; Org./Water = 1; molar %", "excerpt": "The extracting composition is obtained by solubilizing an amount of CEM and ASM in the selected fluidizing agent, dichloromethane CH2Cl2, dichlorobenzene or dichlorotoluene or any other fluidizing agent able to well solubilize the mixture CEM/ASM in order to obtain the searched final concentrations after solubilizing CEMs and ASMs in a minimum of 3 milliliters of fluidizing agent. If the selected fluidizing agent is also an ASM compound, so the selected ASM volume is at least 3 milliliters. The given concentrations of ASM2 and ASM9 are related to the added fluidizing agent volume and the concentrations of CEM are related to the added fluidizing agent+ASM volume. The extracting organic composition is then lightly heated so as to promote the solubilization of the organic compounds by means of a heat gun (temperature around 50 to 60° C.) for a few seconds (10 to 30 seconds) until a clear solution is obtained. The composition is thus left for 24 hours at room temperature so as to make sure that the obtained formulation is stable.\nThese sealed formulations are then orbitally stirred at 500 revolutions/minute for two hours after adding an equivalent volume of water which was distilled twice so as to allow a water saturation of the whole formulation and a pH control at the inlet and at the outlet (pH close to 7, or at least maintained after contact with the saturation water).\n3 mL of the prepared extracting organic composition are then taken from the lower phase of the decanted diphasic mixture and transferred to a vial containing 3 mL of the water containing the one or more considered chloride salts (NaCl or others), then the vial is sealed and orbitally stirred (at 500 revolutions per minute) for 2 hours at room temperature (RT), that is to say between 20 and 25° C.\nA verification is made to make sure that droplets in the range of 1-2 mm are really present during these stirrings in order to be sure that an equilibrium in the distribution of the considered chloride salt (NaCl or other) is achieved between both liquid phases at the end of stirring. The aspect of the organic and aqueous phases is clear and colorless or slightly turbid.\nOnce the 2-hour stirring is carried out, the stirring is stopped and the whole is left for decantation for about 10 minutes, at least until both phases are completely separated, at the temperature of the assay. Then, the upper aqueous phase is taken then stirred and diluted in order to analyze its salinity by a ion chromatography (a Metrohm™ device including a cation analyzing column and an anion analyzing column suitable for the ions and for the concentration of the salts which are searched for). Likewise, the chloride salt (NaCl or other) initial aqueous solution is also analyzed by this ion chromatography to determine its cation and chloride molar relative concentration before the extraction. All the extractions and analyses were duplicated.\nThe considered extracting composition comprises 0.1 mol/L of CEM1 and 3.52 mol/L of ASM2 in dichloromethane CH2Cl2, which was obtained as described above. The initial concentration of the considered salt in water, whether it is LiCl, NaCl, KCl, MgCl2, CaCl2, SrCl2 or BaCl2, is 0.1 mol/L.\nAfter carrying out these 7 specific extractions (duplicated) of salts, the amounts of extracted cations in relative molar percentage before and after extraction at room temperature and at water/extracting formulation iso-volume are indicated in table I: […]"}, "[2]": {"experiment": "Complexing constant Log K in methanol at 25° C.", "format": "binding", "method": "K is the complexing constant of a CEM and a […] cation in methanol, at 25° C., which is measured according to the standard method of isothermal calorimetric titration."}, "[3]": {"experiment": "Extraction of salts from a brine, four extraction steps", "settings": "0.4M CEM1 + 1.2M ASM9 in 12ClPh; for Salinity progression at RT, Ca / Salinity progression at RT, Cl / Salinity progression at RT, K / Salinity progression at RT, Mg / Salinity progression at RT, Na: Org./Water 3, brine 180 g/Liter", "excerpt": "(§1) The extracting composition is as follows: 0.4 Mol/L of CEM1 (cf example 1, of CAS #: 114155-16-7), completed with 1.2 Mol/L of ASM9 of formula: […]\n(§2) The brine is a water having a high salinity, at 180 g/Liter (that is to say 5.6 Mol/L), composed of sodium, potassium, calcium, magnesium and chloride ions in the proportions of table II below. The saline water to be treated was contacted with a triple relative volume of this extracting composition in order to get close to the operating conditions.\n(§3) It is shown in table II below the concentrations, in mMol/L of water, of each of the ions before and after each of the four extraction steps, carried out at room temperature (RT)."}, "[4]": {"experiment": "Selective extraction from a binary mixture NaCl/CaCl2", "settings": "0.1 mol/L CEM + 2.4 mol/L ASM9 in 1,2-dichlorobenzene; brine 0.05 mol/L NaCl and CaCl2 each; RT; molar %", "excerpt": "A brine containing an equimolar mixture of salts, 0.05 mol/L of NaCl and CaCl2 each, which was made as described above, was contacted with two extracting compositions, one of which according to the invention.\nEach extracting composition comprises 0.1 mol/L of CEM\n[drawing 53] and 2.4 mol/L of ASM9 in 1,2-dichlorobenzene.\nA brine containing a mixture of NaCl and CaCl2 is made as described above to obtain the following initial saline concentrations in a mixture: 0.2 Mol/L of NaCl and 0.03 Mol/L of CaCl2. The extracting resin, is composed of 0.1 Mol/L of CEM2, 3.52 Mol/L of ASM2 and a complement of liquid ASM1, which is also used as a fluidizing agent."}, "[5]": {"experiment": "Extraction of salts from a brine, four extraction steps, total salinity", "settings": "0.4M CEM1 + 1.2M ASM9 in 12ClPh; for Salinity progression at RT, Total: Org./Water 3, brine 180 g/Liter", "excerpt": "as §1, §2, §3"}, "[6]": {"settings": "after Extract 4, expressed in g/Liter"}}, "data": [{"compound": "CCN(CC)C(=O)COc1c2cc(C(C)(C)C)cc1Cc1cc(C(C)(C)C)cc(c1OCC(=O)N(CC)CC)Cc1cc(C(C)(C)C)cc(c1OCC(=O)N(CC)CC)Cc1cc(C(C)(C)C)cc(c1OCC(=O)N(CC)CC)C2", "note": "[CEM1, 4-tert-butyl-Calix[4]arene tetrakis(N,N-diethylacetamide)]", "values": [{"measurement": "Extraction rate at room temperature (RT), BaCl2", "setting": "[1]", "value": 46.1, "unit": "%"}, {"measurement": "Extraction rate at room temperature (RT), CaCl2", "setting": "[1]", "value": 59.4, "unit": "%"}, {"measurement": "Extraction rate at room temperature (RT), KCl", "setting": "[1]", "value": 75.8, "unit": "%"}, {"measurement": "Extraction rate at room temperature (RT), LiCl", "setting": "[1]", "value": 73.7, "unit": "%"}, {"measurement": "Extraction rate at room temperature (RT), MgCl2", "setting": "[1]", "value": 5.4, "unit": "%"}, {"measurement": "Extraction rate at room temperature (RT), NaCl", "setting": "[1]", "value": 85.8, "unit": "%"}, {"measurement": "Extraction rate at room temperature (RT), SrCl2", "setting": "[1]", "value": 64.0, "unit": "%"}, {"measurement": "Log K(Ba^++, MeOH, 25° C.)", "setting": "[2]", "value": 7.2}, {"measurement": "Log K(Ca^++, MeOH, 25° C.)", "setting": "[2]", "value": "> 9.0"}, {"measurement": "Log K(Cs^+, MeOH, 25° C.)", "setting": "[2]", "value": 2.5}, {"measurement": "Log K(K^+, MeOH, 25° C.)", "setting": "[2]", "value": 5.8}, {"measurement": "Log K(Li^+, MeOH, 25° C.)", "setting": "[2]", "value": 4.0}, {"measurement": "Log K(Mg^++, MeOH, 25° C.)", "setting": "[2]", "value": "< 1.2"}, {"measurement": "Log K(Na^+, MeOH, 25° C.)", "setting": "[2]", "value": 7.9}, {"measurement": "Log K(Rb^+, MeOH, 25° C.)", "setting": "[2]", "value": 3.8}, {"measurement": "Log K(Sr^++, MeOH, 25° C.)", "setting": "[2]", "value": "> 9.0"}, {"measurement": "Salinity progression at RT, Ca", "setting": "[3]; after Extract 1", "value": 495, "unit": "mmol/L"}, {"measurement": "Salinity progression at RT, Cl", "setting": "[3]; after Extract 1", "value": 2703, "unit": "mmol/L"}, {"measurement": "Salinity progression at RT, K", "setting": "[3]; after Extract 1", "value": 22.5, "unit": "mmol/L"}, {"measurement": "Salinity progression at RT, Mg", "setting": "[3]; after Extract 1", "value": 83.4, "unit": "mmol/L"}, {"measurement": "Salinity progression at RT, Na", "setting": "[3]; after Extract 1", "value": 1162, "unit": "mmol/L"}, {"measurement": "Salinity progression at RT, Ca", "setting": "[3]; after Extract 2", "value": 492, "unit": "mmol/L"}, {"measurement": "Salinity progression at RT, Cl", "setting": "[3]; after Extract 2", "value": 2292, "unit": "mmol/L"}, {"measurement": "Salinity progression at RT, K", "setting": "[3]; after Extract 2", "value": 23.4, "unit": "mmol/L"}, {"measurement": "Salinity progression at RT, Mg", "setting": "[3]; after Extract 2", "value": 86.4, "unit": "mmol/L"}, {"measurement": "Salinity progression at RT, Na", "setting": "[3]; after Extract 2", "value": 429, "unit": "mmol/L"}, {"measurement": "Salinity progression at RT, Ca", "setting": "[3]; after Extract 3", "value": 360, "unit": "mmol/L"}, {"measurement": "Salinity progression at RT, Cl", "setting": "[3]; after Extract 3", "value": 1083, "unit": "mmol/L"}, {"measurement": "Salinity progression at RT, K", "setting": "[3]; after Extract 3", "value": 13.9, "unit": "mmol/L"}, {"measurement": "Salinity progression at RT, Mg", "setting": "[3]; after Extract 3", "value": 87.6, "unit": "mmol/L"}, {"measurement": "Salinity progression at RT, Na", "setting": "[3]; after Extract 3", "value": 8.54, "unit": "mmol/L"}, {"measurement": "Salinity progression at RT, Ca", "setting": "[3]; after Extract 4", "value": 114, "unit": "mmol/L"}, {"measurement": "Salinity progression at RT, Cl", "setting": "[3]; after Extract 4", "value": 469, "unit": "mmol/L"}, {"measurement": "Salinity progression at RT, K", "setting": "[3]; after Extract 4", "value": 3.65, "unit": "mmol/L"}, {"measurement": "Salinity progression at RT, Mg", "setting": "[3]; after Extract 4", "value": 94.2, "unit": "mmol/L"}, {"measurement": "Salinity progression at RT, Na", "setting": "[3]; after Extract 4", "value": 3.70, "unit": "mmol/L"}, {"measurement": "Equivalent4, Ca", "setting": "[3]; [6]", "value": 4.57, "unit": "g/L"}, {"measurement": "Equivalent4, Cl", "setting": "[3]; [6]", "value": 16.62, "unit": "g/L"}, {"measurement": "Equivalent4, K", "setting": "[3]; [6]", "value": 0.14, "unit": "g/L"}, {"measurement": "Equivalent4, Mg", "setting": "[3]; [6]", "value": 2.29, "unit": "g/L"}, {"measurement": "Equivalent4, Na", "setting": "[3]; [6]", "value": 0.09, "unit": "g/L"}, {"measurement": "% E Ca^++", "setting": "[4]", "value": 10.0, "unit": "%"}, {"measurement": "% E Na^+", "setting": "[4]", "value": 88.0, "unit": "%"}, {"measurement": "Salinity progression at RT, Total", "setting": "[5]; after Extract 1", "value": 4466, "unit": "mmol/L"}, {"measurement": "Salinity progression at RT, Total", "setting": "[5]; after Extract 2", "value": 3322, "unit": "mmol/L"}, {"measurement": "Salinity progression at RT, Total", "setting": "[5]; after Extract 3", "value": 1553, "unit": "mmol/L"}, {"measurement": "Salinity progression at RT, Total", "setting": "[5]; after Extract 4", "value": 685, "unit": "mmol/L"}, {"measurement": "Equivalent4, Total", "setting": "[5]; [6]", "value": 23.70, "unit": "g/L"}]}]}
